In US11655210B2, “Compound for improving L-arginine bioavailability” (The General Hospital Corporation, priority 2018, dated 2023):
Read-outs that look alike come from different tables or passages of the source.

Tests used:
[1] = cited from earlier work; for baseline plasma concentration of L-arginine: normal diet over 8 hours
[2] = test system: Human Brain Microvascular Endothelial Cells (HBMVEC); experiment: CellTox Green 24-hour dose dependent cytotoxicity assay; assay type: cell-based; conditions: for toxicity in the cellular model: 100 nM, 10 μM, 100 μM, 0.5 mM
Experimental: Cell cultures were prepared using the following general procedures.
1. Under aseptic conditions 1×20 mm sterile tissue culture dish was coated with sterile 1:100 collagen for two hours at room temperature.
2. Under aseptic conditions 2× sterile 96 well-plates were coated with sterile 50 μL 1:100 collagen for two hours at room temperature.
3. After 2 hr collagen was recollected into 50 mL conical tube.
4. The petri dish and 2×96 well-plates were washed with warmed PBS.
5. Once 60% confluency of HBMVEC was observed, the plate was prepped for passage.
6. Media was aspirated from dish and washed with 1×PBS.
7. 1 mL of Trypsin was added, and the plate was transferred to 37° C. incubator for 1-2 min until cells appeared detached.
8. The plate was transferred back into sterile conditions and 2 mL of EndoGro Basal Media was added to inhibit Trypsin reaction.
9. Cells were pipetted 20× and thoroughly mixed before transferring into 25 mL of EndoGro Basal Media.
10. 100 μL of this mixture was added into each well both 96 well-plate.
11. Left over 5.8 mL of cell solution was transferred to petri dish previously coated with collagen and washed with 1×PBS.
12. Plates were incubated for 48 hours at 37° C.
The following procedures were performed for the cell cytotoxicity assay (CellTox™ Green Cytotoxicity Assay; Promega Corporation). See also CellTox™ Green Cytotoxicity Assay, Instructions for Use of Products G8741, G8742, G8743, and G8731, revised May 2015, the disclosure of which is incorporated herein by reference in its entirety.
1. Samples containing 1:1000 L-Arginine (L-Arg; 100 nM, 10 μM, 100 μM, or 0.5 mL) or 1:1000 of 2-amino-5-guanidino-N-(4-guanidinobutyl)pentanamide (Example 1; 100 nM, 10 μM, 100 μM, or 0.5 mL) were prepared with EndoGro Basal Media without supplements (MWOS) into sterile 10×1 mL microcentrifuge tubes. For concentrations of 0, 1:1000 PBS to MWOS was made.
2. […]
4. Once the wells were treated, plates were incubated at 37° C. for 24 hours and analyzed at 485-500 nm/520-530 nm after cytotoxicity assay treatment.

[3] = test system: NO production in Human Brain Microvascular Endothelial Cells (HBMVEC); experiment: In vitro NO detection assay (Nitric Oxide Cell-Based HTS Assay); conditions: 100 nM to 0.5 mM, analyzed every 15 mins for 1 h, Example 1 versus L-arginine, FIGS. 3-4
Experimental: “A” Bars: […]; “B” bars: 10 μM; “C” bars: 100 μM; “D” bars: 0.5 mM.
The following general procedures were performed for the NO detection assay. See, e.g., Nitric Oxide Cell-Based HTS Assay Kit technical data sheet, Biovision Incorporated; Catalog #K979-10, September 2016, the disclosure of which is incorporated herein by reference in its entirety.
1. Performed cell culture protocol as described in Example 2.
2. Warmed all reagents in 37° C. water bath.
3. Master mix: 3 μL dye to 1.5 mL of Assay buffer for at least 60 wells.
4. Standard curve master mix: 5 μL NO stock solution to 95 μL NO Buffer for at least 60 wells.
5. Media was aspirated from column 1B-1G before aliquoting standard curve solution, as shown below in Table 2.
6. Media was aspirated from 2B-2G through 6B-G before 50 μL aliquots of staining dye. This step was repeated for […] through 10B-10G.
7. Plates were incubated for 1 hour in 37° C.
8. After 1 hour, plates were transferred back into sterile conditions and washed 2× with EndoGro Media (previously warmed to 37° C.) before aliquoting the concentrations shown in Table 3 into each well.
9. Plates were incubated at 37° C. and analyzed every 15 mins for 1 h.

Compound | baseline plasma concentration of L-arginine ([1]; converted value) | baseline plasma concentration of L-arginine [1] | peak concentration ([1]; single oral 10 g dose, converted value) | absolute bioavailability ([1]; single oral 10 g dose) | peak concentration ([1]; single oral 10 g dose) | time of peak concentration after administration ([1]; single oral 10 g dose) | toxicity in the cellular model [2] | capacity for mediating NO production [3] | toxicity in comparison to L-arginine ([2]; FIG. 2)
N=C(N)NCCC[C@H](N)C(=O)O [L-arginine] | ~86.7 µM | about 15.1±2.6 μg/mL | ~287.0 µM | about 20% | 50.0 µg/mL | 1 h | non-toxic | nearly identical capacity for mediating NO production | –
N=C(N)NCCCCNC(=O)C(N)CCCNC(=N)N (centres unmarked) [Example 1, 2-amino-5-guanidino-N-(4-guanidinobutyl)pentanamide] | – | – | – | – | – | – | non-toxic | nearly identical capacity for mediating NO production | no significant difference in toxicity
